Measured values published in a melting point compilation (Tetko et al.).

Compound | melting point
Cc1ccc(-c2nc(CCl)cs2)o1 | 71 to 73 °C
COc1ccnc(NN)n1 | 119 to 121 °C
Cc1cccc2c3c([nH]c12)C(N)CCC3 (stereo not given) | 130 to 132 °C
NC(=O)Cc1ccc(F)cc1 | 155 to 157 °C
Cn1nnc2cc(CCl)ccc21 | 83 to 85 °C
COc1ccc(-c2csc(CC#N)n2)cc1 | 70 to 72 °C
N#Cc1ccccc1-c1ccc(CN)cc1 | 53 to 55 °C
CCc1nn(C)c2[nH]nc(N)c12 | 123 to 125 °C
O=[N+]([O-])c1cc(Cl)ccc1S(=O)(=O)Cl | 74 to 76 °C
COCCn1c(S)nc2cc(Cl)ccc21 | 195 to 197 °C
Nc1nnc(CCCc2ccccc2)o1 | 165 to 167 °C
CC(=O)Nc1ncc(-c2ccc(O)cc2)s1 | 218 to 220 °C
CCOC(=O)COc1ccc(Cl)c2cccnc12 | 113 to 115 °C
c1nc(N2CCNCC2)c2sccc2n1 | 98 to 100 °C
CC(N)c1nn[nH]n1 (stereo not given) | 263 to 265 °C
NC(=NO)c1ccc(COc2ccccc2)cc1 | 143 to 145 °C
O=S(=O)(F)c1ccc2[nH]ncc2c1 | 175 to 177 °C
COc1cc(-c2noc(CCl)n2)ccc1C | 73 to 75 °C
C#Cc1c(F)cccc1F | 34 to 36 °C
Sc1nnc(-c2ccccc2)n1Cc1ccc2c(c1)OCO2 | 118 to 120 °C
CS(=O)(=O)c1ccc(Br)cc1N | 109 to 111 °C
NC(=O)NCCCc1ccccc1 | 137 to 139 °C
NC(=O)c1ccc(Br)c(C(F)(F)F)c1 | 138 to 140 °C
Cc1cc(C)cc(C(N)c2cccnc2)c1 (stereo not given) | 47 to 49 °C
O=C(CCl)Nc1cccc(Cl)c1 | 70 to 72 °C
CC(N)c1ccccc1-c1ccccc1 (stereo not given) | 76 to 78 °C

Compound | melting point
COc1cc(C)cc2c(C)c(C(C)N)oc12 (stereo not given) | 56 to 58 °C
Cc1cc(Cl)nc2c(C(C)C)cccc12 | 43 to 45 °C
O=C(O)c1ccc2[nH]nnc2n1 | 277 to 279 °C
COc1ccc(NC(=O)c2ccc(Br)cc2)c(C)c1 | 164 to 166 °C
Brc1ccc2ncnc(N3CCNCC3)c2c1 | 99 to 101 °C
CCS(=O)(=O)c1cccc(F)c1N | 91 to 93 °C
Nc1cc(-c2cccs2)ncn1 | 222 to 224 °C
Sc1nnc2n(-c3ccccc3)c(-c3ccccc3)nn12 | 237 to 239 °C
FC(F)(F)c1cccc(-c2ncc[nH]2)c1 | 151 to 153 °C
Cc1nc(-c2cccs2)ccc1C(=O)O | 191 to 193 °C
Cc1ccc2c(CCN)c[nH]c2c1 | 139 to 141 °C
Cc1ccc(NC(=O)C(C)Cl)c(F)c1 (stereo not given) | 105 to 107 °C
O=C(O)c1ccncc1Br | 237 to 239 °C
Cc1c(S(N)(=O)=O)sc2c(Cl)cccc12 | 261 to 263 °C
Oc1ccc(OCC(F)(F)F)cc1 | 60 to 62 °C
Cc1nc(-c2ccccn2)sc1C(=O)O | 235 to 237 °C
Nc1nc(-c2cccc(Cl)c2)ns1 | 149 to 151 °C
COc1ccc([N+](=O)[O-])cc1CN | 101 to 103 °C
Cn1c(Cl)nc2ccccc2c1=O | 109 to 111 °C
Nc1nc(=O)cc[nH]1 | 268 to 272 °C
COc1cc(CN2CCNCC2)cc(OC)c1OC | 102 to 104 °C
COc1ccc2nc(C)cc(O)c2c1 | 284 to 286 °C
O=C(Nc1ccc(OC(F)(F)F)cc1)OCC(F)(F)F | 64 to 66 °C
Nc1nnc(Cc2ccsc2)s1 | 177 to 179 °C
N#CCCC(=O)c1cccnc1 | 71 to 73 °C
O=C1NC(=O)C2CN(Cc3ccccc3)CC12 (stereo not given) | 91 to 93 °C

Continued, values first:

melting point | Compound
141 to 143 °C | CSCCC(NC(N)=O)C(=O)O (stereo not given)
68 to 70 °C | CC(O)C1CCNCC1 (stereo not given)
176 to 178 °C | O=C(O)c1ccc(Cl)c(S(=O)(=O)N2CCOCC2)c1
312 to 314 °C | O=C(O)c1cccc(-n2[nH]c(=O)ccc2=O)c1
171 to 173 °C | Cc1ccc(-c2ncc(C(=O)O)s2)c(C)c1
101 to 103 °C | Cc1ccc(OC(C)C(=O)O)cc1 (stereo not given)
68 to 70 °C | Cc1ccc(C#N)c(N2CCCC2)c1
236 to 238 °C | Cc1ccc(-c2cnnn2-c2ccc(C(=O)O)cc2)cc1
179 to 181 °C | O=C(O)c1nn(-c2ccccc2)c2c1CCC2
181 to 183 °C | CCc1ccc(C(=O)O)cc1S(=O)(=O)Cl
179 to 181 °C | CN(CC(=O)O)S(=O)(=O)c1ccc(Br)cc1
96 to 98 °C | CCCC(=O)N1CCCC(C(=O)O)C1 (stereo not given)
113 to 115 °C | CCN(CC)C(=O)Nc1ccc(C(C)=O)cc1
96 to 98 °C | Cc1nc(C2COCCN2C(=O)OC(C)(C)C)no1 (stereo not given)
226 to 228 °C | Cc1nc(-c2cc(C(=O)O)cs2)cs1
129 to 131 °C | CCS(=O)(=O)NC(C)C(=O)O (stereo not given)
209 to 211 °C | Cc1cc(C(=O)O)[nH]c(=O)n1
58 to 60 °C | C=CCOc1ccc(C(F)(F)F)cc1C(=O)O
42 to 44 °C | CC(C)NC(C)(C)CO
98 to 100 °C | CCOC(=O)c1c(C)oc(N)c1C#N
209 to 211 °C | Cc1cncc(C=CC(=O)O)c1
209 to 211 °C | O=C(O)C1(N2CCOCC2)CCC1
132 to 134 °C | CC1CN(Cc2csc(N)n2)CC(C)O1 (stereo not given)
65 to 67 °C | COC(=O)CNc1cccc(F)c1
189 to 191 °C | Cc1cc(F)ccc1-c1ccc(C(=O)O)cc1F
154 to 156 °C | O=C(O)C1CCN(c2ccc(F)c(F)c2)C1=O (stereo not given)
208 to 210 °C | Cc1csc(-c2ccc(C(=O)O)cc2)n1

melting point | Compound
189 to 191 °C | CSc1cc(C(=O)O)ccc1F
37 to 39 °C | O=C(CC(F)(F)F)c1ccccc1
160 to 162 °C | CCNC(=O)c1cccc(O)c1
182 to 184 °C | O=C(CO)Nc1cccc([N+](=O)[O-])c1
199 to 201 °C | O=C(O)Cn1cncn1
239 to 241 °C | CC(C)NC(=O)Nc1cccc(C(=O)O)c1
33 to 37 °C | CCOc1ccc(C(C)=O)cc1CN1CCOCC1
200 to 202 °C | O=C(O)c1ncoc1-c1cccs1
164 to 166 °C | O=C(O)CCN1C(=O)c2ccccc2S1(=O)=O
64 to 66 °C | CNS(=O)(=O)CBr
213 to 215 °C | O=C(O)C=Cc1ccc(S(=O)(=O)NCc2ccco2)cc1
129 to 131 °C | Cc1ccccc1C(=O)NC1CCNCC1
146 to 148 °C | O=C(O)CN1CCCC1CO (stereo not given)
178 to 180 °C | O=C(CCl)c1ccc2c(c1)CCCN2C(=O)c1ccccc1
279 to 281 °C | O=C(O)Cn1ccc(=O)[nH]c1=O
172 to 174 °C | Cn1cnn(CC(=O)O)c1=O
110 to 112 °C | CCOC(=O)c1ccc(-c2ccc(C=O)o2)cc1
115 to 117 °C | NS(=O)(=O)C1CCNC1 (stereo not given)
148 to 150 °C | O=C(O)C1SCCc2sccc21 (stereo not given)
230 to 232 °C | O=C(O)c1cc(S(=O)(=O)N2CCCCC2)ccc1Br
157 to 159 °C | O=C(NC1CC1)c1cccc(O)c1
104 to 106 °C | CC(C)(C)OC(=O)N1C2CCC1CC(CC(=O)O)C2 (stereo not given)
203 to 205 °C | O=C(O)c1nn(-c2ccc(F)cc2F)cc1O
85 to 95 °C | Cc1cc(C(=O)CCl)c(C)n1-c1nccs1
74 to 76 °C | CCOC(=O)Nc1c(F)cc(F)cc1C#C[Si](C)(C)C
139 to 141 °C | CC(C)(C)OC(=O)Nc1snnc1C(=O)O
